Measured values taken from ChEMBL document CHEMBL5331091, “Design, synthesis and evaluation of antitumor activity of selective PRMT6 inhibitors” (Eur J Med Chem, 2023).

Experiments:
HCC827 [1] = experiment: Antiproliferative activity against human HCC827 cells for 3 days by MTT assay; settings: HCC827, 72 h
MDA-MB-435 [2] = experiment: Induction of apoptosis in human MDA-MB-435 cells assessed as late apoptotic cells at 40 uM for 3 days by Annexin V and PI staining based flow cytometric analysis (reference value: 0.45%); assay type: functional; settings: time 3 day
MDA-MB-435 [3] = experiment: Induction of apoptosis in human MDA-MB-435 cells assessed as necrotic cells at 40 uM for 3 days by Annexin V and PI staining based flow cytometric analysis (reference value: 0.61%); assay type: functional; settings: time 3 day
HCC827 [4] = experiment: Antiproliferative activity against human HCC827 cells for 5 days by MTT assay; settings: HCC827, 120 h
MDA-MB-435 [5] = experiment: Antiproliferative activity against human MDA-MB-435 cells for 5 days by MTT assay; settings: MDA-MB-435, 120 h
HCC827 [6] = experiment: Antiproliferative activity against human HCC827 cells for 7 days by MTT assay; settings: HCC827, 168 h
MDA-MB-435 [7] = experiment: Antiproliferative activity against human MDA-MB-435 cells for 3 days by MTT assay; settings: MDA-MB-435, 72 h
[8] = biological target: Protein arginine N-methyltransferase 6 (Homo sapiens, UniProt Q96LA8)
Description: Inhibition of PRMT6 (unknown origin) by AlphaLISA assay in vitro assay

HCC827 [9] = experiment: Induction of apoptosis in human HCC827 cells assessed as necrotic cells at 40 uM for 3 days by Annexin V and PI staining based flow cytometric analysis (reference value: 0.65%); assay type: functional; settings: time 3 day
HCC827 [10] = experiment: Induction of apoptosis in human HCC827 cells assessed as late apoptotic cells at 40 uM for 3 days by Annexin V and PI staining based flow cytometric analysis (reference value: 0.05%); assay type: functional; settings: time 3 day
HCC827 [11] = experiment: Induction of apoptosis in human HCC827 cells assessed as early apoptotic cells at 40 uM for 3 days by Annexin V and PI staining based flow cytometric analysis (reference value: 0.44%); assay type: functional; settings: time 3 day
MDA-MB-435 [12] = experiment: Antiproliferative activity against human MDA-MB-435 cells for 7 days by MTT assay; settings: MDA-MB-435, 168 h
MDA-MB-435 [13] = experiment: Induction of apoptosis in human MDA-MB-435 cells assessed as early apoptotic cells at 40 uM for 3 days by Annexin V and PI staining based flow cytometric analysis (reference value: 0.38%); assay type: functional; settings: time 3 day

Sequence of Protein arginine N-methyltransferase 6 (Q96LA8 whole entry): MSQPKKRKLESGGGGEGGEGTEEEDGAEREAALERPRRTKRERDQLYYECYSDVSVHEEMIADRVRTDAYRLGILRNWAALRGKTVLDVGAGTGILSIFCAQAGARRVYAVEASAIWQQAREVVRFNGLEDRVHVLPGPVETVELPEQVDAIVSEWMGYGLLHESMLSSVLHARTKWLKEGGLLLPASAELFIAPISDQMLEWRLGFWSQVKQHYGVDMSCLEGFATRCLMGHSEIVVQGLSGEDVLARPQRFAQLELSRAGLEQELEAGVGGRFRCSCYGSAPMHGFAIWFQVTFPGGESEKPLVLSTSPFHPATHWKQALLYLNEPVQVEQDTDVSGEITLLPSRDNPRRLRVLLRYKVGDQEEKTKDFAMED

SMILES	IC50 [8] [µM]	also measured
CNCCN(C)Cc1c[nH]nc1-c1ccc(O[C@H]2C[C@H](OCCC3CCOCC3)C2)cc1	0.0071	IC50 (HCC827 [1]): > 100 µM; Activity (MDA-MB-435 [2]): 2.82%; Activity (MDA-MB-435 [3]): 0.64%; IC50 (HCC827 [4]): 8.57 µM; IC50 (MDA-MB-435 [5]): 90.4 µM; IC50 (HCC827 [6]): 4.15 µM; IC50 (MDA-MB-435 [7]): 94.7 µM; Activity (HCC827 [9]): 3.65%; Activity (HCC827 [10]): 6.69%; Activity (HCC827 [11]): 3.11%; IC50 (MDA-MB-435 [12]): 1.1 µM; Activity (MDA-MB-435 [13]): 0.93%
CN(CCN)Cc1cncc(-c2cccc(NS(=O)(=O)c3cccs3)c2)c1	> 5	–
CN(CCN)Cc1cncc(-c2ccc(CN3CCOCC3)cc2)c1	5.24	–
CNCCN(C)Cc1cncc(-c2cccc(NS(=O)(=O)c3ccc(C)cc3)c2)c1	> 5	–
CNCCN(C)Cc1cncc(-c2cccc(NS(=O)(=O)C(F)(F)F)c2)c1	0.684	–
CNCCN(C)Cc1cncc(-c2cccc(NS(=O)(=O)c3cccs3)c2)c1	2.57	–
CNCCN(C)Cc1cncc(-c2cccc(N(S(=O)(=O)c3ccc(C(F)(F)F)cc3)S(=O)(=O)c3ccc(C(F)(F)F)cc3)c2)c1	> 5	–
CNCCN(C)Cc1cncc(-c2cccc(NS(=O)(=O)c3ccc([N+](=O)[O-])cc3)c2)c1	> 5	–
CN(CCN)Cc1cncc(-c2cccc(NS(=O)(=O)c3ccc([N+](=O)[O-])cc3)c2)c1	> 5	–
NCCNC(=O)c1cncc(-c2ccc(NS(=O)(=O)C3CC3)cc2)c1	> 5	–
CN(CCN)Cc1cncc(-c2cccc(NS(=O)(=O)C3CC3)c2)c1	2.97	–
CN(CCN)Cc1cncc(-c2ccc(OC(F)(F)F)cc2)c1	6.36	–
CNCCN(C)Cc1cc(-c2ccc(NS(=O)(=O)C3CC3)cc2)ccn1	1.06	–
CNCCN(C)Cc1cncc(-c2ccc(NS(=O)(=O)C(F)(F)F)cc2)c1	0.213	–
CNCCN(C)C(=O)c1cncc(-c2ccc(NS(=O)(=O)C3CC3)cc2)c1	> 5	–
CNCCN(C)Cc1cncc(-c2cccc(NS(=O)(=O)N(C)C)c2)c1	2.83	–
CN(CCN)Cc1cncc(-c2cccc(NS(=O)(=O)N(C)C)c2)c1	4.4	–
CN(CCN)Cc1cncc(-c2cccc(NS(=O)(=O)c3cnn(C)c3)c2)c1	> 5	–

SMILES	IC50 [8] [µM]	also measured
CNCCN(C)Cc1cncc(-c2ccc(NC(=O)N3CCOCC3)cc2)c1	1.35	–
CNCCN(C)Cc1cncc(-c2cccc(NC(=O)N3CCOCC3)c2)c1	1.54	–
COc1cc(OC)cc(-c2cncc(CN(C)CCN)c2)c1	> 10	–
CNCCN(C)Cc1cncc(-c2cccc(NS(=O)(=O)c3ccc(C(F)(F)F)cc3)c2)c1	> 5	–
CNCCNC(=O)c1cncc(-c2ccc(NS(=O)(=O)C3CC3)cc2)c1	> 5	–
CNCCN(C)Cc1ccnc(-c2ccc(NS(=O)(=O)C3CC3)cc2)c1	0.03	–
CNCCN(C)Cc1ccncc1-c1ccc(NS(=O)(=O)C2CC2)cc1	3.09	–
CN(CCN)C(=O)c1cncc(-c2ccc(NS(=O)(=O)C3CC3)cc2)c1	> 5	–
CNCCN(C)Cc1cncc(-c2cccc(NS(=O)(=O)c3ccccc3C)c2)c1	1.05	–
CN(CCN)Cc1cncc(-c2ccc(NS(=O)(=O)C3CC3)cc2)c1	1.8	–
CNCCN(C)Cc1cncc(-c2cccc(N(S(=O)(=O)c3ccccc3C)S(=O)(=O)c3ccccc3C)c2)c1	> 5	–
CNCCN(C)Cc1cncc(-c2cccc(NC(=O)C(C)C)c2)c1	1.59	–
CNCCN(C)Cc1cncc(-c2cccc(NS(=O)(=O)c3cnn(C)c3)c2)c1	> 5	–
CNCCN(C)Cc1cncc(-c2cccc(NS(=O)(=O)Cc3ccccc3)c2)c1	> 5	–
CNCCN(C)C(=O)c1cncc(-c2cccc(NS(=O)(=O)C3CC3)c2)c1	> 5	–
CNCCN(C)Cc1cncc(-c2cccc(NS(=O)(=O)C3CC3)c2)c1	0.262	–
Nc1ncnc2c1ncn2[C@@H]1O[C@H](CSCC[C@H](N)C(=O)O)[C@@H](O)[C@H]1O [S-ADENOSYLHOMOCYSTEINE]	2.18	–
